In one assay the target is aldose reductase (Homo sapiens, UniProt P15121). The experiment in a line: aldose reductase inhibitory activity test in vitro. The format is biochemical. Put shortly: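 Absorbance assay with 0.1 mM NADPH solution and enzyme preincubated with compound 10 min at room temperature, then 10 mM D,L-glyceraldehyde solution added as substrate. Incubation 30 min at 37 °C in PBS. Read-out is optical density at 340 nm, corrected with blank (no compound) and background (no substrate) wells.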

Assay [1] concerns the target T1, protein tyrosine phosphatase 1B (PTP-1B) (Homo sapiens, UniProt P18031).
T1 sequence (P18031 1-435): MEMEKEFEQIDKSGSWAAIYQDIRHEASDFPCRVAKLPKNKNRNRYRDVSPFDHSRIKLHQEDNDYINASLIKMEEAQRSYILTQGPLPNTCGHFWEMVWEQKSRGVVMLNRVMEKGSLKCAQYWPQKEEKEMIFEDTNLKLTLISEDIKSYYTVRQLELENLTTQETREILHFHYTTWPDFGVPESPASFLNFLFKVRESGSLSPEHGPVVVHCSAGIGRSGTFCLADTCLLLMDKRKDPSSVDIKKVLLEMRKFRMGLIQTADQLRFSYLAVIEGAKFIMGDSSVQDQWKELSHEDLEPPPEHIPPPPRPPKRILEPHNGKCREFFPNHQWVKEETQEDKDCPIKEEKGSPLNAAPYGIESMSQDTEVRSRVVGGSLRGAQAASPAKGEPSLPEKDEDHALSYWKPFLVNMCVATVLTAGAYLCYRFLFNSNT
Kind of assay: PTP-1B inhibitory activity test in vitro. The format is biochemical. The method, boiled down: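 Compound was preincubated 10 min at room temperature with 170 μg/mL PTP-1B solution, then 1 mM pNPP substrate was added and incubated 37 °C for 30 min. Reaction stopped with 3M NaOH; absorbance read at […], with blank and compound-background controls.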

For the next assay, the target named is T2, HMG-CoA reductase (Homo sapiens, UniProt P04035).
T2 sequence (P04035 426-888 limits assumed): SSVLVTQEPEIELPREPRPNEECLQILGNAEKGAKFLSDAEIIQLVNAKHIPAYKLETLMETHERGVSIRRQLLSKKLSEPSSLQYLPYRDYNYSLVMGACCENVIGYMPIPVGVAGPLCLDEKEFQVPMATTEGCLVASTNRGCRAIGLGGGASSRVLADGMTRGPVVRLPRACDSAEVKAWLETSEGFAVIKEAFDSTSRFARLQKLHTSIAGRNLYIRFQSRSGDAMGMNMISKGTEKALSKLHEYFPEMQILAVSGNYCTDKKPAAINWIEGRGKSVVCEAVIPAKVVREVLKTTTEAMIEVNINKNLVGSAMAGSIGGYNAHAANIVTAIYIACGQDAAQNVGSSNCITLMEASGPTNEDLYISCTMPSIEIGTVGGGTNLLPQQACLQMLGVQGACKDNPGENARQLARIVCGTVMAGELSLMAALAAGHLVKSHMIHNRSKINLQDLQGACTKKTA
The experiment in a line: HMG-CoA reductase inhibitory activity test in vitro. The format is biochemical.

The target in another assay is T3, α-glucosidase (Saccharomyces cerevisiae, UniProt P53341).
T3 construct: purchased Sigma Corporation G5003
Kind of assay: α-glucosidase inhibitory activity test in vitro. In kind it is biochemical. The note with it: read-out: α-glucosidase inhibitory activity (IC50).

For a further assay, the target named is T4, dipeptidyl peptidase-4 (Homo sapiens, UniProt P27487).
T4 construct: purchased
The experiment in a line: dipeptidyl peptidase-4 inhibitory activity test in vitro (DPP-4 inhibitor screening kit). In kind it is biochemical. The text has this: The above compounds are detected by DPP-4 inhibitor screening kit.

Assay [2] concerns hyperglycemia mice induced by alloxan. Kind of assay: blood sugar of hyperglycemia mice induced by alloxan. In kind it is in vivo, Kunming species mice. As for the experimental part: Blood glucose determination kit (batch number 20140403) is purchased from Nanjing Jiancheng Bioengineering Institute. Methods: after being acclimatized for 1 week, 10 randomly selected Kunming species male mice of SPF level of 20±2 g are used as control group, while the other 50 mice are given alloxan to make model by intraperitoneal injection according to body weight 220 mg/kg.

The results in this text go back to patent US10441562B2, “Aromatic farnesyl compound and application thereof” (INSTITUTE OF MICROBIOLOGY, CHINESE ACADEMY OF SCIENCES, priority 2015, dated 2019).

The structures appear in SMILES notation. Marks after values point to notes of the source that are not given here.

T3 sequence (P53341 whole entry): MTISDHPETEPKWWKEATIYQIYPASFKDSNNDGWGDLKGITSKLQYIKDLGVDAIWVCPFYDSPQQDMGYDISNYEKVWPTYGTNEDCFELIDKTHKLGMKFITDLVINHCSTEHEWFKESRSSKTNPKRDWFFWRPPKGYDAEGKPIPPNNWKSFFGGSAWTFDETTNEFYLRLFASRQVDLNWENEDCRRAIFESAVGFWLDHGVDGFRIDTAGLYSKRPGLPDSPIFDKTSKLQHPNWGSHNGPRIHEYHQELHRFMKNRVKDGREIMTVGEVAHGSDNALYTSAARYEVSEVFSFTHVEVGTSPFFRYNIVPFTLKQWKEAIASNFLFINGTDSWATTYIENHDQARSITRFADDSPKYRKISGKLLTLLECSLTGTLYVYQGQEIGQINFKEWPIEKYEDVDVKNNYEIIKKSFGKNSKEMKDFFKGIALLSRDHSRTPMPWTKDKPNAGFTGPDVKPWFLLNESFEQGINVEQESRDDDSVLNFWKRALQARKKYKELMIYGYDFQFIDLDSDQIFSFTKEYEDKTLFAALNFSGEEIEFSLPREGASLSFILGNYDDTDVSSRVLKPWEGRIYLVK
T4 sequence (P27487 whole entry, species assumed): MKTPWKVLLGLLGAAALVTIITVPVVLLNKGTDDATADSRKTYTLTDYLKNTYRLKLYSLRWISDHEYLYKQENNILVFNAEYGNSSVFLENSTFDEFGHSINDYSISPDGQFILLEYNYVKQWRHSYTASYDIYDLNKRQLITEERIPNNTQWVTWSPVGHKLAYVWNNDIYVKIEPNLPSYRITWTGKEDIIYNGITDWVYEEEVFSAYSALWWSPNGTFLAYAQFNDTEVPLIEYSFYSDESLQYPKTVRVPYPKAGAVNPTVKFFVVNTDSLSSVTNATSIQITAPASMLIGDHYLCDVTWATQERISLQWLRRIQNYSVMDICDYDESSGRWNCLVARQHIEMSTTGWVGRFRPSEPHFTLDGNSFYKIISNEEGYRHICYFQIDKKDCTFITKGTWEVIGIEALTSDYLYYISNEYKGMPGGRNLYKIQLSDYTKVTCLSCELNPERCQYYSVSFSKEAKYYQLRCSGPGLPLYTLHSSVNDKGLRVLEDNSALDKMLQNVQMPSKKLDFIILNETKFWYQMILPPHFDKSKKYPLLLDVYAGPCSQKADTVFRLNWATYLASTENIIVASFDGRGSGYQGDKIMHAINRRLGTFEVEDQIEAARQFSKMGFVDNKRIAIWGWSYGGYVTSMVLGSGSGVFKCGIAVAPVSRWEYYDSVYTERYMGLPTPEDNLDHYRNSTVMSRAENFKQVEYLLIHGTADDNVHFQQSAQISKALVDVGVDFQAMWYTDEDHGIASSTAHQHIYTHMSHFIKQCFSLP

Usually IC50 stands for the concentration at which inhibition is half-maximal. Take `CC(C)=CCC/C(C)=C/CCC1=C[C@@H](c2ccccc2)OC1=O` [S16, (S,E)-3-(4,8-dimethylnona-3,7-dien-1-yl)-5-phenylfuran-2(5H)-one]: the IC50 at aldose reductase was determined as 58.2 µM; in assay [1], 12.5 µM; against HMG-CoA reductase, 3.6 µM; at α-glucosidase, 0.23 µM; against dipeptidyl peptidase-4, 12 µM. Further, the “blood sugar after administration” value in assay [2] (50 mg/kg intragastric, 10 days, fasted 10 hours) is 6.12** mmol/L. Further, the “blood sugar before administration” value in assay [2] (before administration) worked out at 15.25 mmol/L.
